Laboratory results reported in patent publication EP0701561B1, “DESOXYAZAPHOSPHOLIPID DERIVATIVES HAVING INHIBITING ACTIVITY ON PHOSPHOLIPASE A2” (LABORATORIOS MENARINI S.A., priority 1993, dated 1994).

The compounds below were run on carrageenin plantar oedema (assay: Antiinflammatory activity, inhibition of the carrageenin plantar oedema in the rat). Conditions: intravenously, dose 2.5 mg/Kg, paw volume 3 hours after carrageenin.
Type: in vivo, male Sprague-Dawley rats
Experimental: The antiinflammatory action of the compounds of the present invention is determined by a standard test based on the procedure by Winter C.A. et al. (Proc. Soc. Exp. Biol. Med., 111, 544 (1962)). In this test, male Sprague-Dawley rats of 90-110 g are used, which are randomized in groups of 5 animals. The compound under test is administered intravenously in the tail lateral vein. The compound is suspended in Tween 20 (2-3% final concentration) and physiological serum is added to obtain a solution of the desired concentration of the compound, the administered volume being 2.5 ml/kg. Immediately after the injection of the compound, a subplantar injection of 0.1 ml of 1% carrageenin in physiological serum is performed in the right paw of the rat. In each test, a control group is systematically used, which is administered with the vehicle only. The paw inflammation is evaluated by measuring its volume with a water plethysmograph 1, 3 and 6 hours after inducing the inflammation. The determination of the inhibition percentage of the inflammation is calculated by the following formula: % Inhibition = (1 - A/B) x 100 [formula] wherein A is the average of the swelling volume in the group of treated animals and B is the average of the swelling volume in the control group.
For comparison purposes, the inhibition values of indomethacin and ketoprofen are also included as reference. The inhibition value found for Compound A, a structural analogous of the compounds described in the present patent, is also shown.

Row | Compound | % Inhibition (3 hours)
1 | CCCCCCCCCCS(=O)(=O)NC(CCCCCC)COP(=O)(O)OCCOCc1ccccc1 (stereo not shown) [Compound 26, 2-Decanesulfonylaminooctanol-1-phospho-2-benzyloxyethanol] | 26%

Same assay, conditions: intravenously, dose 5 mg/Kg, paw volume 3 hours after carrageenin

Row | Compound | % Inhibition (3 hours)
2 | CCCCCCCCCCS(=O)(=O)NC(CCCCCC)COP(=O)(O)OCCOCc1ccccc1 (stereo not shown) [Compound 26, 2-Decanesulfonylaminooctanol-1-phospho-2-benzyloxyethanol] | 37%
3 | CCCCCCCCCCS(=O)(=O)N[C@H](CCCCCC)COP(=O)(O)OCCOCc1ccccc1 [Compound 27, (R)-2-Decanesulfonylaminooctanol-1-phospho-2-benzyloxyethanol] | 36%
4 | CCCCCCCCCCS(=O)(=O)N[C@@H](CCCCCC)COP(=O)(O)OCCOCc1ccccc1 [Compound 28, (S)-2-Decanesulfonylaminooctanol-1-phospho-2-benzyloxyethanol] | 19%
5 | CCCCCCC(COP(=O)(O)OCCOCc1ccccc1)NS(=O)(=O)CCCc1ccccc1 (stereo not shown) [Compound 32, 2-(3-Phenylpropanesulfonylamino)octanol-1-phospho-2-benzyloxyethanol] | 35%
6 | CCCCCCCCCCS(=O)(=O)NC(CCCCCC)COP(=O)(O)CCCCc1ccccc1 (stereo not shown) [Compound 38, 2-Decanesulfonaminooctyl (4-phenylbutyl)phosphonate] | 23%
7 | CCCCCCCCCCCC(=O)NC(CCCCCC)COP(=O)(O)CCCC (stereo not shown) [Compound 39, 2-Dodecanoylaminooctyl butylphosphonate] | 17%
8 | COc1ccc2c(c1)c(CC(=O)O)c(C)n2C(=O)c1ccc(Cl)cc1 [Indomethacin, indomethacin, reference compound] | 37%
9 | CC(C(=O)O)c1cccc(C(=O)c2ccccc2)c1 (stereo not shown) [Ketoprofen, ketoprofen, reference compound] | 37%
10 | (R)-2-Decanesulfonylaminohexanol-1-phospho-2-benzyloxyethanol [Compound 29] | 27%
11 | (S)-2-Decanesulfonylaminohexanol-1-phospho-2-benzyloxyethanol [Compound 30] | 12%

Same assay, conditions: intravenously, dose 10 mg/Kg, paw volume 3 hours after carrageenin

Row | Compound | % Inhibition (3 hours)
12 | CCCCCCCCCCS(=O)(=O)NC(CCCCCC)COP(=O)(O)OCCOCc1ccccc1 (stereo not shown) [Compound 26, 2-Decanesulfonylaminooctanol-1-phospho-2-benzyloxyethanol] | 41%
13 | CCCCCCCCCCCC(=O)NC(CCCCCC)COP(=O)(O)OCCOCc1ccccc1 (stereo not shown) [Compound A, 2-dodecanoylaminooctanol-1-phospho-2-benzyloxyethanol, reference compound] | 14%
